Experimental data from patent US6822146B2, “Sulfonylurea-tolerant sunflower line M7” (priority 2000, dated 2004).

What was measured:
[1] = test system: Weeds Agronomically Important in Sunflower Crops; assay: Test H summary; type: in vivo; details: tribenuron-methyl 22.5 g a.i./ha, metsulfuron-methyl 6 g a.i./ha
Text: (§1) Field plots (2 m×5 m) were tilled to remove weed cover and then seeded in rows with the following weeds: Capsella bursa pastoris, Atriplex patula, Chenopodium album, Stellaria media, Mecurialis annua, Polygonum persicaria, Amaranthus retroflexus, Polygonum convolvulus, Polygonum aviculare, Viola arvensis, Matricaria inodora, Anagallis arvensis, Sinapis arvensis, Setaria viridis, Solanum nigrum and Echinochloa crusgalli. After 21 days from sowing, at which time the weeds had reached the 2- to 6-leaf stage, herbicide treatments were applied to the plots according to a complete randomized block design, with each herbicide treatment triply replicated. The herbicides were sprayed using standard flat fan nozzles moved perpendicular to the sown lines using water spray volumes of about 296 L/ha.
(§2) Assessments of weed control were made by visual inspection 36 days after herbicide treatment. A visual rating system was used based on a percentage scale from 0 to 100% compared to an adjacent untreated control plot. On this scale 0 represents no visual differences relative to an untreated control and 100 represents complete control of the given weed species.

[2] = test system: heterozygous resistant hybrids (C to H); details: in vivo
Description: (§3) In a small field trial, the sunflower varieties described in Table 4 were sprayed post-emergence with a variety of sulfonylurea herbicide treatments.
(§4) Broadcast post-emergence applications of formulated sulfonylurea herbicides were performed at the 6-leaf development stage using four randomly distributed replications. Application rates were chosen to match the usual use rates of these herbicides in the crops they are registered in Europe. All herbicides except for metsulfuron-methyl were sprayed in combination with Citowet® non-ionic ethoxylated alcohol at 0.25% volume of formulated product per volume of water applied per hectare.
(§5) The evaluation of the maximum (i.e. peak) injury to sunflower varieties by sulfonylurea herbicides was measured by visual ratings, which are listed in Table 5. A rating of 0% phytotoxicity means no crop injury. […] A rating of 100% means the complete destruction of all plants.

[3] = test system: Homozygous resistant inbred lines, BC3-M4M12 (I), BC3-M4M11 (J) and BC3-M4M7 (K); assay: Test A summary, homozygous resistant inbred lines; details: in vivo
Description: as §3, §4, §5

[4] = test system: Capsella bursa pastoris; assay: Test H weed control, field plots; type: in vivo; design: concentration or dose not given beside the values; details: 36 days after treatment; g a.i./ha: tribenuron-methyl 22.5, metsulfuron-methyl 6, ethametsulfuron-methyl 16, imazapyr isopropylamine salt 15, aclonifen 1200
Text: as §1, §2

[5] = test system: Atriplex patula; assay: Test H weed control, field plots; type: in vivo; design: concentration or dose not given beside the values; details: 36 days after treatment; g a.i./ha: tribenuron-methyl 22.5, metsulfuron-methyl 6, ethametsulfuron-methyl 16, imazapyr isopropylamine salt 15, aclonifen 1200
Text: as §1, §2

[6] = test system: Amaranthus retroflexus; assay: Test H weed control, field plots; type: in vivo; design: concentration or dose not given beside the values; details: 36 days after treatment; g a.i./ha: tribenuron-methyl 22.5, metsulfuron-methyl 6, ethametsulfuron-methyl 16, imazapyr isopropylamine salt 15, aclonifen 1200
Text: as §1, §2

[7] = test system: Viola arvensis; assay: Test H weed control, field plots; type: in vivo; design: concentration or dose not given beside the values; details: 36 days after treatment; g a.i./ha: tribenuron-methyl 22.5, metsulfuron-methyl 6, ethametsulfuron-methyl 16, imazapyr isopropylamine salt 15, aclonifen 1200
Text: as §1, §2

[8] = test system: Polygonum persicaria; assay: Test H weed control, field plots; type: in vivo; design: concentration or dose not given beside the values; details: 36 days after treatment; g a.i./ha: tribenuron-methyl 22.5, metsulfuron-methyl 6, ethametsulfuron-methyl 16, imazapyr isopropylamine salt 15, aclonifen 1200
Text: as §1, §2

[9] = test system: Anagallis arvensis; assay: Test H weed control, field plots; type: in vivo; design: concentration or dose not given beside the values; details: 36 days after treatment; g a.i./ha: tribenuron-methyl 22.5, metsulfuron-methyl 6, ethametsulfuron-methyl 16, imazapyr isopropylamine salt 15, aclonifen 1200
Text: as §1, §2

[10] = test system: Setaria viridis; assay: Test H weed control, field plots; type: in vivo; design: concentration or dose not given beside the values; details: 36 days after treatment; g a.i./ha: tribenuron-methyl 22.5, metsulfuron-methyl 6, ethametsulfuron-methyl 16, imazapyr isopropylamine salt 15, aclonifen 1200
Text: as §1, §2

[11] = test system: Solanum nigrum; assay: Test H weed control, field plots; type: in vivo; design: concentration or dose not given beside the values; details: 36 days after treatment; g a.i./ha: tribenuron-methyl 22.5, metsulfuron-methyl 6, ethametsulfuron-methyl 16, imazapyr isopropylamine salt 15, aclonifen 1200
Text: as §1, §2

[12] = test system: Sinapis arvensis; assay: Test H weed control, field plots; type: in vivo; design: concentration or dose not given beside the values; details: 36 days after treatment; g a.i./ha: tribenuron-methyl 22.5, metsulfuron-methyl 6, ethametsulfuron-methyl 16, imazapyr isopropylamine salt 15, aclonifen 1200
Text: as §1, §2

[13] = test system: Polygonum aviculare; assay: Test H weed control, field plots; type: in vivo; design: concentration or dose not given beside the values; details: 36 days after treatment; g a.i./ha: tribenuron-methyl 22.5, metsulfuron-methyl 6, ethametsulfuron-methyl 16, imazapyr isopropylamine salt 15, aclonifen 1200
Text: as §1, §2

[14] = test system: Matricaria inodora; assay: Test H weed control, field plots; type: in vivo; design: concentration or dose not given beside the values; details: 36 days after treatment; g a.i./ha: tribenuron-methyl 22.5, metsulfuron-methyl 6, ethametsulfuron-methyl 16, imazapyr isopropylamine salt 15, aclonifen 1200
Text: as §1, §2

[15] = test system: Echinochloa crus-galli; assay: Test H weed control, field plots; type: in vivo; design: concentration or dose not given beside the values; details: 36 days after treatment; g a.i./ha: tribenuron-methyl 22.5, metsulfuron-methyl 6, ethametsulfuron-methyl 16, imazapyr isopropylamine salt 15, aclonifen 1200
Text: as §1, §2

[16] = test system: Mercurialis annua; assay: Test H weed control, field plots; type: in vivo; design: concentration or dose not given beside the values; details: 36 days after treatment; g a.i./ha: tribenuron-methyl 22.5, metsulfuron-methyl 6, ethametsulfuron-methyl 16, imazapyr isopropylamine salt 15, aclonifen 1200
Text: as §1, §2

[17] = test system: Polygonum convolvulus; assay: Test H weed control, field plots; type: in vivo; design: concentration or dose not given beside the values; details: 36 days after treatment; g a.i./ha: tribenuron-methyl 22.5, metsulfuron-methyl 6, ethametsulfuron-methyl 16, imazapyr isopropylamine salt 15, aclonifen 1200
Text: as §1, §2

[18] = test system: Orobanche cumana (Race F); assay: Test F sequential application to control Orobanche cumana; type: in vivo
Description: A greenhouse experiment was performed to identify the best sequential program compared to straight application of tribenuron-methyl or metsulfuron-methyl for control of Orobanche cumana (Race F). The dose range for optimum efficacy was also studied. Both herbicides were used as formulated compositions. […] BC4-M5M7×PHA155 is referred to below as “Hybrid 7”, and BC4-M5M12×PHA155 is referred to below as “Hybrid 12”.
Seed coating treatment was performed as described for Test D. Post-emergence treatments were applied at the 2-4 leaf stage of sunflower (corresponding to early stage of Orobanche attachment; identified as “T1”), the 6 leaf stage of sunflower (corresponding to the mid stage of Orobanche attachment; nodules <5 mm diameter; identified as “T2”) and 8 leaf stage of sunflower (corresponding to late stage of Orobanche attachment; identified as “T3”).
The efficacy was evaluated visually as described for Test D except that the efficacy was assessed ten days later than for Tests D and E. The later evaluation allowed observing any reduction of efficacy due to late Orobanche emergence or re-growth of treated nodules. Efficacy in controlling Orobanche attached to roots was evidenced by nodules comprising black necrotic tissues with no apparent active meristematic area. These nodules could be easily crushed between fingers.

[19] = post-emergence T1 3 + T3 3 g a.i./ha
[20] = post-emergence T1 11.25 + T3 11.25 g a.i./ha
[21] = post-emergence T1 22.5 g a.i./ha
[22] = post-emergence T2 11.25 g a.i./ha
[23] = post-emergence T2 22.5 g a.i./ha
[24] = post-emergence T3 11.25 g a.i./ha
[25] = post-emergence T3 22.5 g a.i./ha
[26] = seed coating 11.25 + post-emergence T2 11.25 g a.i./ha
[27] = seed coating 11.25 + post-emergence T3 11.25 g a.i./ha

SMILES | weed control spectrum [1] | tolerance of heterozygous resistant hybrids C to H [2] | tolerance of homozygous resistant inbred lines I, J, K [3] | weed control, visual rating: Capsella bursa pastoris [4] | weed control, visual rating: Atriplex patula [5] | weed control, visual rating: Amaranthus retroflexus [6] | weed control, visual rating: Viola arvensis [7] | weed control, visual rating: Polygonum persicaria [8] | weed control, visual rating: Anagallis arvensis [9] | weed control, visual rating: Setaria viridis [10] | weed control, visual rating: Solanum nigrum [11] | weed control, visual rating: Sinapis arvensis [12] | weed control, visual rating: Polygonum aviculare [13] | weed control, visual rating: Matricaria inodora [14] | weed control, visual rating: Echinochloa crus-galli [15] | weed control, visual rating: Mercurialis annua [16] | weed control, visual rating: Polygonum convolvulus [17] | also measured
COC(=O)c1ccccc1S(=O)(=O)NC(=O)Nc1nc(C)nc(OC)n1 [Metsulfuron-methyl, metsulfuron-methyl] | excellent broad-spectrum weed control | as tolerant as the three homozygous resistant lines | resistant | 100% | 100% | 99% | 100% | 100% | 100% | 47% | 97% | 100% | 100% | 100% | 47% | 100% | 92% | % Control in Hybrid 7 [18, 19]: 92%; % Control in Hybrid 12 [18, 19]: 90%; % Control in Hybrid 7 ([18]; post-emergence T1 3 g a.i./ha): 65%; % Control in Hybrid 12 ([18]; post-emergence T1 3 g a.i./ha): 63%; % Control in Hybrid 7 ([18]; post-emergence T3 3 g a.i./ha): 93%; % Control in Hybrid 12 ([18]; post-emergence T3 3 g a.i./ha): 95%; control of Orobanche ([18]; single late post-emergence treatment with 3 g a.i./ha): excellent control
COC(=O)c1ccccc1S(=O)(=O)NC(=O)N(C)c1nc(C)nc(OC)n1 [Tribenuron-methyl, tribenuron-methyl] | excellent broad-spectrum weed control | as tolerant as the three homozygous resistant lines | resistant | 100% | 100% | 93% | 100% | 100% | 100% | 65% | 100% | 100% | 90% | 100% | 65% | 100% | 93% | rate needed for good control of Orobanche ([18]; greenhouse test, Hybrid 7 and Hybrid 12): 22.5 g a.i./ha; % Control in Hybrid 7 [18, 20]: 85%; % Control in Hybrid 12 [18, 20]: 85%; % Control in Hybrid 7 [18, 21]: 72%; % Control in Hybrid 12 [18, 21]: 73%; % Control in Hybrid 7 [18, 22]: 77%; % Control in Hybrid 12 [18, 22]: 73%; % Control in Hybrid 7 [18, 23]: 82%; % Control in Hybrid 12 [18, 23]: 83%; % Control in Hybrid 7 [18, 24]: 78%; % Control in Hybrid 12 [18, 24]: 80%; % Control in Hybrid 7 [18, 25]: 87%; % Control in Hybrid 12 [18, 25]: 87%; % Control in Hybrid 7 [18, 26]: 77%; % Control in Hybrid 12 [18, 26]: 78%; % Control in Hybrid 7 [18, 27]: 82%; % Control in Hybrid 12 [18, 27]: 83%
